Results as given in paper PMC9501983, “Transport and Permeation Properties of Dapivirine: Understanding Potential Drug-Drug Interactions” (Pharmaceutics, 2022).

What was measured:
[1] = DPV tissue permeability across excised human ectocervical tissue (in-line cell); assay type: in vitro ADME; settings: female, human; 182 µM DPV alone in vaginal fluid simulant pH 4.2, 360 min; read-out: Papp across human cervical tissue
Description: Freshly excised human ectocervical tissue samples from 6 pre-menopausal women were obtained through the Pitt Biospecimen Core at the University of Pittsburgh under an IRB-approved protocol (IRB# PRO09110431). Tissue samples were immersed in ice-cold Dulbecco’s modified Eagle medium during transfer from the surgery site to the laboratory. Tissue samples were then processed as previously reported, where excess stromal tissue was removed using a scalpel, and the epithelium was isolated using a Stadie-Riggs tissue slicer. The isolated epithelium sections were then mounted onto the in-line cell apparatus (PermeGear, Cranford, NJ, USA), a flow-through type Franz cell, with the epithelial side facing the apical compartment. A small piece of tissue sample was fixed in 10% formalin as the pre-treatment control for histology evaluation.
Vaginal fluid simulant was used to prepare drug solutions. Vaginal fluid simulant was prepared using a reported formulation (3.51 g L^−1 sodium chloride, 1.40 g L^−1 potassium hydroxide, 0.22 g L^−1 calcium hydroxide, 0.018 g L^−1 bovine serum albumin, 2.00 g L^−1 lactic acid, 1.00 g L^−1 acetic acid, 0.16 g L^−1 glycerin, 0.4 g L^−1 urea, and 5.0 g L^−1 glucose) and adjusted to pH 4.2 with 1N hydrochloric acid. To evaluate the impact of MIC on DPV tissue permeability, 450 μL of a mixture containing 182 µM (60 μg g^−1) DPV and 63 mM (30 mg g^−1) MIC was added to the apical compartment and compared to 182 µM (60 μg g^−1) DPV alone. […] One half of the tissue sample was fixed in 10% formalin for subsequent histological evaluation, while the other half was used for drug quantification. To quantify drug tissue levels, each tissue sample was digested overnight in 2 mL Solvable held at 50 °C. […] Samples were then cooled to room temperature and 1.5 mL of each sample was used for quantification. To quantify ^3H-DPV and ^14C-mannitol, each vial of collected sample was mixed with 2 mL scintillation cocktail and analyzed on an LS6500 liquid scintillation counter. Papp was calculated using Equation (2) as described above.

human cervical tissue = test: Histology (H&E) of human cervical tissue after permeability assay; settings: 6-h exposure, clinically relevant concentrations
Method: Gross morphology of tissue samples was evaluated using hematoxylin and eosin (H&E) staining. After fixation in formalin, tissue samples were dehydrated in alcohol, cleared in xylene, and embedded in paraffin wax. Five-micron sections of embedded tissue were used to perform H&E staining following manufacturer’s procedures (hematoxylin for 5 min, bluing reagent for 15 s, and eosin for 2 min) and mounted onto microscope slides using Cytoseal 60. Images were acquired using the AxioCam software, version 4.9.1 (Carl Zeiss, San Diego, CA, USA) paired with the microscope, Axioskop 40 (Carl Zeiss, San Diego, CA, USA).

MRP4 = tested on: MRP4; set-up: method as in PMID 26102284; settings: DPV at 10 μM; cited from earlier work
CYP3A4 = tested on: CYP3A4; set-up: method as in PMID 34959473; settings: cited from earlier work

- Papp at 360 min, 182 µM [1]: 0.88 ± 0.53 ×10⁻⁶ cm/s
- Gross morphology of human cervical epithelium after exposure (human cervical tissue): did not alter the gross morphology
Compound: Cc1cc(C)c(Nc2ccnc(Nc3ccc(C#N)cc3)n2)c(C)c1 [DPV, dapivirine]
- Effect on MRP4 expression level (MRP4): downregulating
- Substrate of CYP3A4 (CYP3A4): substrate
